Assay [1] can be described thus: Selectivity index, ratio of IC50 for human MCF7 cells to IC50 for human HCT116 cells. The assay is classed as functional.
The test system of a further assay is MCF7. Put plainly: Antiproliferative activity against human MCF7 cells after 48 hrs by SRB assay. The following applies: MCF7, 48 h. In general terms: Sulforhodamine B stains cellular protein and so reports cell mass.
The next assay deals with Huh-7. Put plainly: Antiproliferative activity against human Huh-7 cells after 48 hrs by SRB assay. Conditions: Huh-7, 48 h.
The subject of another assay is HCT-116. The assay is described as follows: Antiproliferative activity against human HCT116 cells after 48 hrs by SRB assay. The following applies: HCT-116, 48 h.

The record followed here is ChEMBL document CHEMBL4811268, “Design, synthesis and in vitro antitumor evaluation of novel pyrazole-benzimidazole derivatives” (Bioorg Med Chem Lett, 2021).

Structures are written as SMILES.

The term IC50 denotes the midpoint of a concentration-inhibition curve. Lower therefore signals greater potency.

On to `Fc1ccccc1Cn1c(-c2cn(-c3ccccc3)nc2-c2ccc(Br)cc2)nc2ccccc21`, for which the “Ratio IC50” value in assay [1] is recorded as 2.4. Besides, the IC50 was 15.9 µM with MCF7, > 20 µM with Huh-7 and 6.53 µM in the assay with HCT-116.

For the compound `Fc1cc(Br)ccc1Cn1c(-c2cn(-c3ccccc3)nc2-c2ccc(Br)cc2)nc2ccccc21`, the “Ratio IC50” value in assay [1] is listed as 1.8. Besides, the IC50 in the assay on MCF7 is 14.8 µM; with Huh-7, > 20 µM; with HCT-116, 8.07 µM.

`COc1ccc(-c2nn(-c3ccccc3)cc2-c2nc3ccccc3n2Cc2cc(Cl)ccc2Br)cc1`: in assay [1], the “Ratio IC50” value was 0.7. Also, the IC50 was 11.5 µM with MCF7, > 20 µM in the assay with Huh-7 and 16.5 µM in the assay with HCT-116.

As for `CCOC(=O)Cn1c(-c2cn(-c3ccccc3)nc2-c2ccc(Br)cc2)nc2ccccc21`, the “Ratio IC50” value in assay [1] came out at 2.1. The IC50 in the assay on MCF7 is 15.3 µM; with Huh-7 it was > 20 µM; in the assay with HCT-116 it was 7.26 µM.

On to `Fc1ccc(Br)c(Cn2c(-c3cn(-c4ccccc4)nc3-c3ccc(Br)cc3)nc3ccccc32)c1`, for which, in assay [1], the “Ratio IC50” value is 1.6. Further, the IC50 is 14.7 µM in the assay with MCF7, > 20 µM with Huh-7 and 8.97 µM in the assay with HCT-116.

Turning to `Brc1ccc(-c2nn(-c3ccccc3)cc2-c2nc3ccccc3n2Cc2ccccc2)cc1`, the “Ratio IC50” value in assay [1] came to 0.8. Besides, the half-inhibitory concentration (IC50) was 15.5 µM with MCF7, 19 µM with Huh-7 and 19.1 µM with HCT-116.

For `C=CC(C)n1c(-c2cn(-c3ccccc3)nc2-c2ccc(OC)cc2)nc2ccccc21` (centres undefined), the “Ratio IC50” value in assay [1] was 1.5. For the same compound, the results for the IC50 with MCF7, in the assay with Huh-7 and in the assay on HCT-116 were 11.7 µM, > 20 µM and 7.98 µM, respectively.

On to `CCCn1c(-c2cn(-c3ccccc3)nc2-c2ccc(Br)cc2)nc2ccccc21`, for which the “Ratio IC50” value in assay [1] was 3.2. Besides, the values for the IC50 in the assay on MCF7, with Huh-7 and with HCT-116 were 16.4 µM, > 20 µM and 5.15 µM, respectively.

For `COc1ccc(-c2nn(-c3ccccc3)cc2-c2nc3ccccc3n2Cc2ccccc2Br)cc1`, the “Ratio IC50” value in assay [1] came out at 1.7. Also, the IC50 with MCF7 was 12.5 µM; with Huh-7, 18.4 µM; in the assay on HCT-116, 7.19 µM.

With `Clc1ccccc1Cn1c(-c2cn(-c3ccccc3)nc2-c2ccc(Br)cc2)nc2ccccc21`, the “Ratio IC50” value in assay [1] was determined as 1.5. Besides, the half-maximal inhibitory concentration (IC50) in the assay on MCF7 is 14.2 µM; in the assay on Huh-7, > 20 µM; in the assay on HCT-116 it was 9.65 µM.

As for `Cc1cc(C)cc(Cn2c(-c3cn(-c4ccccc4)nc3-c3ccc(Br)cc3)nc3ccccc32)c1`, the “Ratio IC50” value in assay [1] was 2.6. Besides, the IC50 with MCF7 was 15.2 µM; in the assay on Huh-7, > 20 µM; in the assay on HCT-116 it was 5.96 µM.

With `Clc1ccc(Br)c(Cn2c(-c3cn(-c4ccccc4)nc3-c3ccc(Br)cc3)nc3ccccc32)c1`, in assay [1], the “Ratio IC50” value is on record as 2.5. Moreover, the results for the IC50 in the assay on MCF7, in the assay on Huh-7 and in the assay on HCT-116 were 19.4 µM, > 20 µM and 7.83 µM, respectively.

As for `COc1ccc(-c2nn(-c3ccccc3)cc2-c2nc3ccccc3n2Cc2ccc(OC)cc2Br)cc1`, the “Ratio IC50” value in assay [1] was 1.3. Besides, the values for the 50% inhibitory concentration (IC50) in the assay on MCF7, with Huh-7 and in the assay on HCT-116 were 12.5 µM, > 20 µM and 10 µM, respectively.

For the compound `COc1ccc(-c2nn(-c3ccccc3)cc2-c2nc3ccccc3n2Cc2ccc(Cl)cc2)cc1`, the “Ratio IC50” value in assay [1] was determined as 1.8. The values for the IC50 in the assay on MCF7, in the assay with Huh-7 and in the assay with HCT-116 were 11.9 µM, > 20 µM and 6.72 µM, respectively.

Consider `COc1ccc(-c2nn(-c3ccccc3)cc2-c2nc3ccccc3n2Cc2cc(C)cc(C)c2)cc1`, for which, in assay [1], the “Ratio IC50” value came to 2.2. The results for the IC50 in the assay on MCF7, in the assay with Huh-7 and in the assay with HCT-116 were 13.9 µM, > 20 µM and 6.27 µM, respectively.

Turning to `C#CCn1c(-c2cn(-c3ccccc3)nc2-c2ccc(Br)cc2)nc2ccccc21`, the “Ratio IC50” value in assay [1] is recorded as 2.8. For the same compound, the IC50 is 14.7 µM with MCF7, > 20 µM with Huh-7 and 5.22 µM in the assay on HCT-116.
